Source: US20230414584A1, “ADMINISTRATION OF ANTIBIOTIC COMPOUNDS FOR THE TREATMENT OF STREPTOCOCCAL INFECTIONS FOR THE TREATMENT OF PSORIASIS” (CENTRE FOR DIGESTIVE DISEASES, priority 2017, published 2023)

Columns and labels:
[1] = tested on: extensive plaque psoriasis; assay: Case report: treatment of psoriasis with Clofazimine, Rifampicin, Tinidazole, Enbrel (Example 4); format: in vivo, human
Method: It was at this time that antibiotics were added to the etanercept (Enbrel™).

[2] = tested on: psoriasis of the scalp; assay: Case report: treatment of psoriasis of the scalp in an adult with OCD using Metronidazole (Example 1); format: in vivo, human
Text: A patient with Obsessive-Compulsive Personality Disorder (OCD) commenced treatment in April 2016 with two non-absorbable antibiotics (vancomycin and rifaximin), together with the absorbable Metronidazole. The aim was to suppress their gut bacteria to reduce the OCD.

## CN(Cc1cnc2nc(N)nc(N)c2n1)c1ccc(C(=O)N[C@@H](CCC(=O)O)C(=O)O)cc1 [Methotrexate]
[1]; person, steroid-dependent extensive psoriasis
  adverse effects: unacceptable adverse effects

## Cc1ncc([N+](=O)[O-])n1CCO [Metronidazole]
[2]; patient, Metronidazole given with non-absorbable vancomycin and rifaximin from April 2016, by November of 2016
  psoriasis of the scalp: marked suppression of the psoriasis of the scalp
[2]; same patient, by February of 2017
  psoriasis of the scalp: very little psoriasis left on the scalp

## etanercept
[1]; in spite of many months of injections, before antibiotics were added
  response of psoriasis on continued treatment: the response stalled
[1]; person, before antibiotics were added
  response of psoriasis: reduction of the surface area of their body covered by psoriasis plaque
